According to patent publication US8846873B2, “Antibodies directed to GPNMB and uses thereof” (Celldex Therapeutics, Inc., priority 2004, dated 2014):

Columns and labels:
[1] = tested on: SK-MEL-5 melanoma xenografts; assay: Human SK-MEL-5 melanoma xenograft in athymic mice; assay type: in vivo
Procedure: Test Animals: Five- to 6-week old athymic mice (CD-1 nu/nu females), used for human tumor xenografts, were obtained from Harlan Laboratories (Indianapolis, Ind.). Animals were housed in specific pathogen-free conditions, according to the guidelines of the Association for Assessment and Accreditation of Laboratory Animal Care International (AAALAC International). Test animals were provided pelleted food and water ad libitum and kept in a room with conditioned ventilation (HVAC), temperature (22°±2° C.), relative humidity (55%±15%), and photoperiod (12 hr). All studies were carried out with approved institutional animal care and use protocols.
Human Melanoma Xenograft Models. The tumor inhibitory activity of the CR011-MMAE immunoconjugate was measured in an anti-tumor xenograft model using athymic mice, according to published methods (see Geran et al., Cancer Chemother. Rep. 3:1-104 (1972)). […] When tumors became established (10-20 days), the animals were pair-matched into groups (n=6 mice/group), and treatment was administered by intravenous injection (tail vein).
The SK-MEL-2 human melanoma (ATCC #HTB-68) was derived from a metastatic site (skin of thigh) of a person with malignant melanoma, and the SK-MEL-5 human melanoma (ATCC #HTB-70) was derived from a metastatic site (axillary lymph node) of a person with malignant melanoma (see Fogh et al., J. Natl. Cancer Inst. 59: 221-226 (1977)). Both cell lines were obtained from the American Type Culture Collection.
The effects of treatment were monitored by repetitive tumor measurements across 2 diameters with Vernier calipers; tumor size (in mg) was calculated using a standard formula, (W^2×L)/2, assuming a specific gravity of 1.0. Tumor size and body weights were assessed twice weekly. Mice were examined daily, however, and moribund animals were humanely euthanized if clinical indications of excessive pain or distress were noted (i.e., prostration, hunched posture, paralysis/paresis, distended abdomen, ulcerations, abscesses, seizures, and/or hemorrhages). Animals with tumors exceeding 2,000 mg were removed from the study and euthanized humanely.
Soon after the commencement of treatment with paclitaxel, however, significant tumor growth inhibition was observed (P≦0.039) at day 3 after treatment began, and this anti-tumor effect continued, producing 100% growth inhibition (stasis). The responses of SK-MEL-5-bearing test animals to vinblastine and paclitaxel were short-lived. After cessation of treatment at the maximally tolerated doses, tumors resumed rapid, progressive growth.

[2] = tested on: KG-1 (acute myelogenous leukemia); assay: Clonogenic assay with 1.15.1-AE (methylcellulose); assay type: cell-based
Procedure: (§1) Lymphoma or leukemia cell lines were mixed with methylcellulose base media (R&D Systems, USA) and in various concentrations of unconjugated and Auristatin E-conjugated 1.15.1 antibody before plating onto 6-well tissue culture plates (Becton Dickinson, Franklin Lakes, N.J., USA). […] Plates were incubated at 37° C. and examined daily. On days 14-18, colonies on the plates were counted.

DEL (ALCL) = assay: Clonogenic assay with 1.15.1-AE (methylcellulose); assay type: cell-based
Procedure: as §1

SUP-M2 (ALCL) = assay: Clonogenic assay with 1.15.1-AE (methylcellulose); assay type: cell-based
Procedure: as §1

HEMNLP = assay: Clonogenic assay with 1.15.1-AE; assay type: cell-based, human
Procedure: (§2) Melanoma cell lines were plated onto flat bottom 96-well tissue culture plates (Becton Dickinson, Franklin Lakes, N.J., USA). On day 2 or when cells reach ˜25% confluency, various concentrations of unconjugated and Auristatin E-conjugated 1.15.1 were added to cells. MAb 2.6.2-AE was also used as a conjugated isotype control in this study. On day 5, the cells were trypsinized, transferred to 6-well tissue culture plates and incubated at 37° C. Plates were examined daily. On days 8-10, all plates were Giemsa stained and colonies on the plates were counted.

UACC-62 = assay: Clonogenic assay with 1.15.1-AE; assay type: cell-based, human
Procedure: as §2

LOXIMVI = assay: Clonogenic assay with 1.15.1-AE; assay type: cell-based, human
Procedure: as §2

A2058 = assay: Clonogenic assay with 1.15.1-AE; assay type: cell-based, human
Procedure: as §2

M14 = assay: Clonogenic assay with 1.15.1-AE; assay type: cell-based, human
Procedure: as §2

RPMI-7951 = assay: Clonogenic assay with 1.15.1-AE; assay type: cell-based, human
Procedure: as §2

SK-Mel 2 = assay: Clonogenic assay with 1.15.1-AE; assay type: cell-based, human
Procedure: as §2

WM-266-4 = assay: Clonogenic assay with 1.15.1-AE; assay type: cell-based, human
Procedure: as §2

MEWO = assay: Clonogenic assay with 1.15.1-AE; assay type: cell-based, human
Procedure: as §2

SK-Mel 5 = assay: Clonogenic assay with 1.15.1-AE; assay type: cell-based, human
Procedure: as §2

G361 = assay: Clonogenic assay with 1.15.1-AE; assay type: cell-based, human
Procedure: as §2

HT144 = assay: Clonogenic assay with 1.15.1-AE; assay type: cell-based, human
Procedure: as §2

UACC-257 = assay: Clonogenic assay with 1.15.1-AE; assay type: cell-based, human
Procedure: as §2

SK-Mel-2 cells = assay: Clonogenic assay after GPNMB siRNA transfection; assay type: cell-based, human
Procedure: SK-MeI-2 cells are transfected with 50 nM of control siRNA or siRNA targeting GPNMB. A. Cell lysates are prepared from the transfected SK-Mel-2 cells 2 and 4 days post-transfection and the expression of GPNMB (upper panel) or actin (lower panel) is determined by immunoblotting. Lane 1: Mock (oligofectamine) transfection. Lane 2: Control siRNA transfection. Lane 3: GPNMB siRNA transfection. B. Flow cytometry analysis of GPNMB expression 2 and 4 days after transfection. SK-Mel-2 cells are transfected with mock, control siRNA or GPNMB siRNA as indicted in the Materials and Methods. C. […] The surviving fraction is normalized to the untreated control and expressed as a percentage of control using GraphPad Prism graphing software. Each treatment is performed in triplicate. A representative experiment from two independent studies is shown.
Cells were plated in 96-well plates and allowed to recover overnight. […] The cells were then transferred into 6-well plates and allowed to form colonies. Colonies were stained with Giemsa stain (Sigma) and counted. The surviving cell fractions were calculated based upon the ratio of the treated sample and the untreated control. The results were expressed as a percentage of control using GraphPad Prism Version 4 software.
The amount of GPNMB expression was reduced for at least 7 days after transfection.

## CR011-vcMMAE: anti-GPNMB antibody 1.15.1 coupled to monomethylauristatin E via protease-sensitive valine-citrulline linker
[1]; 2.5 mg/kg/treatment
  complete regressions: Complete regressions occurred
[1]; 10 mg/kg/treatment, compared to PBS-treated controls
  time after treatment began to significant anti-tumor effects: 10 days
[1]; 10 mg/kg/treatment, compared to saline
  time after treatments began to significant anti-tumor effects: 7 days
[1]; CR011-ONC-3, i.v., vs saline and PBS control groups
  anti-tumor effect: Substantial tumor growth inhibition, as well as tumor growth delay and complete regressions
[1]; i.v., q4d x4
  doses at which complete regressions occurred: > 2.5 mg/kg
[1]; treated tumor-bearing animals
  toxicity (mortality, body weight or weight gain): no indication of toxicity
[2]
  Clonogenic Assay with 1.15.1-AE IC50: No growth
DEL (ALCL)
  Clonogenic Assay with 1.15.1-AE IC50: No effect
SUP-M2 (ALCL)
  Clonogenic Assay with 1.15.1-AE IC50: No growth
HEMNLP
  Clonogenic Assay with 1.15.1-AE IC50: Inconclusive
UACC-62
  Clonogenic Assay with 1.15.1-AE IC50: 0.697 µg/mL
  IC50: 4.3 nM
LOXIMVI
  Clonogenic Assay with 1.15.1-AE IC50: No effect
A2058
  Clonogenic Assay with 1.15.1-AE IC50: No effect
M14
  Clonogenic Assay with 1.15.1-AE IC50: Inconclusive
RPMI-7951
  Clonogenic Assay with 1.15.1-AE IC50: 0.972 µg/mL
  IC50: 6 nM
SK-Mel 2
  Clonogenic Assay with 1.15.1-AE IC50: 0.111 µg/mL
  IC50: 0.75 nM
WM-266-4
  Clonogenic Assay with 1.15.1-AE IC50: 0.345 µg/mL
  IC50: 2.3 nM
MEWO
  Clonogenic Assay with 1.15.1-AE IC50: Inconclusive
SK-Mel 5
  Clonogenic Assay with 1.15.1-AE IC50: 0.237 µg/mL
  IC50: 1.6 nM
G361
  Clonogenic Assay with 1.15.1-AE IC50: 1.053 µg/mL
  IC50: 6.5 nM
HT144
  Clonogenic Assay with 1.15.1-AE IC50: Inconclusive
UACC-257
  Clonogenic Assay with 1.15.1-AE IC50: 0.825 µg/mL
  IC50: 5.5 nM
SK-Mel-2 cells
  sensitivity to growth-inhibitory activity following siRNA-mediated GPNMB knockdown: less sensitive
